In ChEMBL document CHEMBL4145553, “Design, synthesis, and biological evaluation of novel amide and hydrazide based thioether analogs targeting Histone deacteylase (HDAC) enzymes” (Eur J Med Chem, 2018):
Active and inactive are the calls of the source. The calls are words filed in the database; no cut-off is given here.

Tests used:
U-251 [1] = experiment: Growth inhibition of human U251 cells assessed as cell growth at 10^-8 M incubated for 48 hrs by sulforhodamine B assay relative to control; format: functional; conditions: U-251, 48 h, read-out: Activity
MDA-MB-468 = experiment: Growth inhibition of human MDA-MB-468 cells assessed as cell growth at 10^-6 M incubated for 48 hrs by sulforhodamine B assay relative to control; format: functional; conditions: MDA-MB-468, 48 h, read-out: Activity
CAKI-1 = experiment: Growth inhibition of human Caki1 cells assessed as cell growth at 10^-4 M incubated for 48 hrs by sulforhodamine B assay relative to control; format: functional; conditions: CAKI-1, 48 h, read-out: Activity
T47D = experiment: Growth inhibition of human T47D cells assessed as cell growth at 10^-4 M incubated for 48 hrs by sulforhodamine B assay relative to control; format: functional; conditions: read-out: Activity
OVCAR-5 = experiment: Growth inhibition of human OVCAR5 cells assessed as cell growth at 10^-4 M incubated for 48 hrs by sulforhodamine B assay relative to control; format: functional; conditions: OVCAR-5, 48 h, read-out: Activity
ACHN = experiment: Growth inhibition of human ACHN cells incubated for 48 hrs by sulforhodamine B assay; format: functional
SNB-19 [2] = experiment: Growth inhibition of human SNB19 cells assessed as cell growth at 10^-5 M incubated for 48 hrs by sulforhodamine B assay relative to control; format: functional; conditions: SNB-19, 48 h, read-out: Activity
Hs-578T [3] = experiment: Growth inhibition of human Hs 578T cells assessed as cell growth at 10^-5 M incubated for 48 hrs by sulforhodamine B assay relative to control; format: functional; conditions: read-out: Activity
TK-10 = experiment: Growth inhibition of human TK10 cells assessed as cell growth at 10^-7 M incubated for 48 hrs by sulforhodamine B assay relative to control; format: functional; conditions: TK-10, 48 h, read-out: Activity
U-251 [4] = experiment: Growth inhibition of human U251 cells incubated for 48 hrs by sulforhodamine B assay; format: functional; conditions: U-251, 48 h
SK-MEL-5 = experiment: Growth inhibition of human SK-MEL-5 cells assessed as cell growth at 10^-7 M incubated for 48 hrs by sulforhodamine B assay relative to control; format: functional; conditions: SK-MEL-5, 48 h, read-out: Activity
OVCAR-4 = experiment: Growth inhibition of human OVCAR4 cells assessed as cell growth at 10^-4 M incubated for 48 hrs by sulforhodamine B assay relative to control; format: functional; conditions: OVCAR-4, 48 h, read-out: Activity
MDA-MB-435 [5] = experiment: Induction of apoptosis in human MDA-MB-435 cells assessed as early apoptotic cells by propidium iodide/Annexin V staining based flow cytometry (reference value: 0.25%); format: functional
COLO 205 = experiment: Growth inhibition of human COLO205 cells incubated for 48 hrs by sulforhodamine B assay; format: functional; conditions: COLO 205, 48 h
HT-29 [6] = experiment: Growth inhibition of human HT-29 cells assessed as cell growth at 10^-8 M incubated for 48 hrs by sulforhodamine B assay relative to control; format: functional; conditions: HT-29, 48 h, read-out: Activity
K562 = experiment: Growth inhibition of human K562 cells assessed as cell growth at 10^-6 M incubated for 48 hrs by sulforhodamine B assay relative to control; format: functional; conditions: K562, 48 h, read-out: Activity
LOX IMVI = experiment: Growth inhibition of human LOXIMVI cells assessed as cell growth at 10^-4 M incubated for 48 hrs by sulforhodamine B assay relative to control; format: functional; conditions: read-out: Activity
HCC 2998 [7] = experiment: Growth inhibition of human HCC2998 cells assessed as cell growth at 10^-4 M incubated for 48 hrs by sulforhodamine B assay relative to control; format: functional; conditions: HCC 2998, 48 h, read-out: Activity
Hs-578T [8] = experiment: Growth inhibition of human Hs 578T cells assessed as cell growth at 10^-6 M incubated for 48 hrs by sulforhodamine B assay relative to control; format: functional; conditions: read-out: Activity
HCC 2998 [9] = experiment: Growth inhibition of human HCC2998 cells assessed as cell growth at 10^-8 M incubated for 48 hrs by sulforhodamine B assay relative to control; format: functional; conditions: HCC 2998, 48 h, read-out: Activity
SNB-19 [10] = experiment: Growth inhibition of human SNB19 cells assessed as cell growth at 10^-6 M incubated for 48 hrs by sulforhodamine B assay relative to control; format: functional; conditions: SNB-19, 48 h, read-out: Activity
HL-60 = experiment: Downregulation of HDAC1 mRNA expression in human HL60 cells by qRT-PCR method; format: functional, cell-based
NCI-H226 = experiment: Growth inhibition of human NCI-H226 cells incubated for 48 hrs by sulforhodamine B assay; format: functional; conditions: NCI-H226, 48 h
MDA-MB-435 [11] = experiment: Cell cycle arrest in human MDA-MB-435 cells assessed as accumulation at G1-phase by propidium iodide staining based flow cytometry (reference value: 69.15%); format: functional
NCI/ADR-RES = experiment: Growth inhibition of human NCI/ADR-RES cells assessed as cell growth at 10^-8 M incubated for 48 hrs by sulforhodamine B assay relative to control; format: functional; conditions: read-out: Activity
SW-620 = experiment: Growth inhibition of human SW620 cells assessed as cell growth at 10^-5 M incubated for 48 hrs by sulforhodamine B assay relative to control; format: functional; conditions: SW-620, 48 h, read-out: Activity
NCI-H322M = experiment: Growth inhibition of human NCI-H322M cells assessed as cell growth at 10^-8 M incubated for 48 hrs by sulforhodamine B assay relative to control; format: functional; conditions: read-out: Activity
UACC-257 = experiment: Growth inhibition of human UACC257 cells assessed as cell growth at 10^-6 M incubated for 48 hrs by sulforhodamine B assay relative to control; format: functional; conditions: UACC-257, 48 h, read-out: Activity
MOLT-4 = experiment: Growth inhibition of human MOLT4 cells assessed as cell growth at 10^-8 M incubated for 48 hrs by sulforhodamine B assay relative to control; format: functional; conditions: MOLT-4, 48 h, read-out: Activity
HT-29 [12] = experiment: Growth inhibition of human HT-29 cells incubated for 48 hrs by sulforhodamine B assay; format: functional; conditions: HT-29, 48 h
[13] = read-out: LC50 (the source's name)
[14] = read-out: pLC50 (the source's name) (converted)

## CCS/C(Nc1ccccc1)=C(\C#N)C(=O)N/N=C\c1ccc(Cl)cc1Cl
U-251 [1]
  growth at 0.01 µM: 101%
MDA-MB-468
  growth at 1 µM: 88%
CAKI-1
  growth at 100 µM: 13%
T47D
  growth at 100 µM: 17%
OVCAR-5
  growth at 100 µM: 38%
ACHN; read-out: GI50
  GI50: 7.08 µM
ACHN; [13]
  CC50: > 100 µM
ACHN; read-out: TGI
  TGI: > 100 µM
ACHN; read-out: pGI50 (converted)
  GI50: 7.08 µM
ACHN; [14]
  CC50: > 100 µM
ACHN; read-out: pTGI
  TGI: > 100 µM
SNB-19 [2]
  growth at 10 µM: 28%
Hs-578T [3]
  growth at 10 µM: 18%
TK-10
  growth at 0.1 µM: 91%
U-251 [4]; read-out: GI50
  GI50: 3.95 µM
U-251 [4]; [13]
  CC50: > 100 µM
U-251 [4]; read-out: TGI
  TGI: > 100 µM
U-251 [4]; read-out: pGI50 (converted)
  GI50: 3.98 µM
U-251 [4]; [14]
  CC50: > 100 µM
U-251 [4]; read-out: pTGI
  TGI: > 100 µM
SK-MEL-5
  growth at 0.1 µM: 90%
OVCAR-4
  growth at 100 µM: 9%
MDA-MB-435 [5]
  Activity: 2.52%
COLO 205; read-out: GI50
  GI50: 3.09 µM
COLO 205; [13]
  CC50: > 100 µM
COLO 205; read-out: pGI50 (converted)
  GI50: 3.09 µM
COLO 205; [14]
  CC50: > 100 µM
HT-29 [6]
  growth at 0.01 µM: 105%
K562
  growth at 1 µM: 47%
LOX IMVI
  growth at 100 µM: 22%
HCC 2998 [7]
  growth at 100 µM: 35%
Hs-578T [8]
  growth at 1 µM: 75%
HCC 2998 [9]
  growth at 0.01 µM: 101%
SNB-19 [10]
  growth at 1 µM: 86%
HL-60
  Activity: Active
NCI-H226; read-out: GI50
  GI50: 4 µM
NCI-H226; [13]
  CC50: > 100 µM
NCI-H226; read-out: TGI
  TGI: > 100 µM
NCI-H226; read-out: pGI50 (converted)
  GI50: 3.98 µM
NCI-H226; [14]
  CC50: > 100 µM
NCI-H226; read-out: pTGI (converted)
  TGI: > 100 µM
MDA-MB-435 [11]
  Activity: 61.56%
NCI/ADR-RES
  growth at 0.01 µM: 98%
SW-620
  growth at 10 µM: 31%
NCI-H322M
  growth at 0.01 µM: 94%
UACC-257
  growth at 1 µM: 92%
MOLT-4
  growth at 0.01 µM: 95%
HT-29 [12]; read-out: GI50
  GI50: 3.7 µM
HT-29 [12]; [13]
  CC50: > 100 µM
HT-29 [12]; read-out: TGI
  TGI: > 100 µM
HT-29 [12]; read-out: pGI50 (converted)
  GI50: 3.72 µM
HT-29 [12]; [14]
  CC50: > 100 µM
HT-29 [12]; read-out: pTGI (converted)
  TGI: > 100 µM

## CCS/C(Nc1ccccc1)=C(\C#N)C(=O)Nc1ccc(OC)cc1
U-251 [1]
  growth at 0.01 µM: 97%
MDA-MB-468
  growth at 1 µM: 60%
CAKI-1
  growth at 100 µM: 18%
T47D
  growth at 100 µM: 3%
OVCAR-5
  growth at 100 µM: 23%
ACHN; read-out: GI50
  GI50: 5.04 µM
ACHN; [13]
  CC50: > 100 µM
ACHN; read-out: TGI
  TGI: > 100 µM
ACHN; read-out: pGI50 (converted)
  GI50: 5.01 µM
ACHN; [14]
  CC50: > 100 µM
ACHN; read-out: pTGI
  TGI: > 100 µM
SNB-19 [2]
  growth at 10 µM: 22%
Hs-578T [3]
  growth at 10 µM: 28%
TK-10
  growth at 0.1 µM: 95%
U-251 [4]; read-out: GI50
  GI50: 4.42 µM
U-251 [4]; [13]
  CC50: > 100 µM
U-251 [4]; read-out: TGI
  TGI: > 100 µM
U-251 [4]; read-out: pGI50 (converted)
  GI50: 4.47 µM
U-251 [4]; [14]
  CC50: > 100 µM
U-251 [4]; read-out: pTGI
  TGI: > 100 µM
SK-MEL-5
  growth at 0.1 µM: 90%
OVCAR-4
  growth at 100 µM: 29%
MDA-MB-435 [5]
  Activity: 4.61%
COLO 205; read-out: GI50
  GI50: 3.06 µM
COLO 205; [13]
  CC50: > 100 µM
COLO 205; read-out: TGI
  TGI: 11.2 µM
COLO 205; read-out: pGI50 (converted)
  GI50: 3.09 µM
COLO 205; [14]
  CC50: > 100 µM
COLO 205; read-out: pTGI (converted)
  TGI: 11.2 µM
HT-29 [6]
  growth at 0.01 µM: 109%
K562
  growth at 1 µM: 29%
LOX IMVI
  growth at 100 µM: 12%
HCC 2998 [7]
  growth at 100 µM: 7%
Hs-578T [8]
  growth at 1 µM: 84%
HCC 2998 [9]
  growth at 0.01 µM: 102%
SNB-19 [10]
  growth at 1 µM: 84%
HL-60
  Activity: Active
NCI-H226; read-out: GI50
  GI50: 5.45 µM
NCI-H226; [13]
  CC50: > 100 µM
NCI-H226; read-out: TGI
  TGI: 50.7 µM
NCI-H226; read-out: pGI50 (converted)
  GI50: 5.5 µM
NCI-H226; [14]
  CC50: > 100 µM
NCI-H226; read-out: pTGI (converted)
  TGI: 50.1 µM
MDA-MB-435 [11]
  Activity: 51.68%
NCI/ADR-RES
  growth at 0.01 µM: 100%
SW-620
  growth at 10 µM: 21%
NCI-H322M
  growth at 0.01 µM: 95%
UACC-257
  growth at 1 µM: 93%
MOLT-4
  growth at 0.01 µM: 97%
HT-29 [12]; read-out: GI50
  GI50: 3.47 µM
HT-29 [12]; [13]
  CC50: > 100 µM
HT-29 [12]; read-out: TGI
  TGI: 33.3 µM
HT-29 [12]; read-out: pGI50 (converted)
  GI50: 3.47 µM
HT-29 [12]; [14]
  CC50: > 100 µM
HT-29 [12]; read-out: pTGI (converted)
  TGI: 33.1 µM
